Experimental data from patent US11858878B2, “Gemini surfactant composition and method for treating subterranean rock” (KING FAHD UNIVERSITY OF PETROLEUM AND MINERALS, priority 2018, dated 2024).

Tests used:
[1] = Surface tension measurements by pendant drop method in water (cmc and surface properties); assay type: physicochemical; conditions: for Amin (nominal surface area per molecule) / Γmax × 10^6 (highest surface access at the air-water interface): air-water interface; for πcmc (ability to lower the surface tension of water) / γcmc (surface tension at cmc) / cmc (critical micelle concentration) / surface tension at all investigated concentrations (rank among surfactants): water; for γcmc (surface tension at cmc) / cmc (critical micelle concentration): pendant drop; for cmc (critical micelle concentration): intersection of two lines in plot of surface tension versus concentration; for surface tension at all investigated concentrations (rank among surfactants): FIGS. 9 and 10
Description: Surface Properties. Surface tensions were identified with the help of pendant drop method at 20° C. using Biolin Scientific Attension instrument. Water was used as a solvent for all surface tension experiments. The reported data points of all surface tension measurements are average equilibrium values. The critical micelle concentration (cmc) was measured from the intersection point of two lines in the plot of surface tension versus concentration.
Surface Tension Measurements. […] The surface properties can be related to the different chain length, spacer length, spacer rigidity, and to the presence of different counterions in the gemini surfactants.
The gemini surfactant ability to lower the surface tension of water (πcmc), highest surface access (rmax) at the interface of air-water, as well as nominal surface area per molecule (Amin) was given in Table 1. The method used to calculate these properties was also given in our previous publication; Hussain S S, Animashaun M A, Kamal M S, Ullah N, Hussein I A, Sultan A S (2016) Synthesis, Characterization and Surface Properties of Amidosulfobetaine Surfactants Bearing Odd-Number Hydrophobic Tail. J Surfactants Deterg 19 (2):413-420, incorporated herein by reference in its entirety.

[2] = Long-term thermal stability: aging of aqueous solutions, followed by NMR and FTIR; assay type: physicochemical; conditions: aqueous solution, sealed tube, 90° C., 10 days
Description: Long-Term Thermal Stability. Long-term thermal stability was assessed using a novel approach based on an aging technique. Aqueous solutions of gemini surfactants (1)-(6) were aged in a sealed tube for 10 days at 90° C. NMR (^1H, ^13C) and FTIR instruments were used to identify the changes in the structure of the surfactants after aging.
The short-term and long-term thermal stability of the synthesized gemini surfactants (1)-(6) were investigated. […] (FIG. 2). The long-term thermal stability of the gemini surfactants (1)-(6) was examined using a novel approach based on aging technique where the aqueous solutions of surfactants were aged in a sealed tube at 90° C. for 10 days. NMR (^1H, ^13C) and FTIR instruments were used to study the change in the structure of the surfactants after aging at a different period. […]
Similarly, the olefinic protons in the spacer group of 10 days aged sample of gemini surfactants 1 (FIG. 3) were also detected. […]
According to ^13C NMR spectra of the 10 days aged samples of gemini surfactants (1) and (6)(FIGS. 4 and 6), the methyl [—(CH2)n—CH3)] and methylene carbon in hydrophobic tail of gemini surfactants (1) and (6) were clearly identified. […] The olefinic carbon in hydrophobic tail of gemini surfactant (6) (FIG. 6) as well as the olefinic carbon in spacer group of gemini surfactant 1 (FIG. 4) were also detected. […]

[3] = aqueous solution; cited from earlier work

| SMILES | Amin (nominal surface area per molecule) [1] [nm^2] | Γmax × 10^6 (highest surface access at the air-water interface) [1] [mol m^−2] | πcmc (ability to lower the surface tension of water) [1] [mN m^−1] | γcmc (surface tension at cmc) [1] [mN m^−1] | cmc (critical micelle concentration) [1] [mol/L] | long-term thermal stability (structure change by NMR, FTIR after aging) [2] | surface tension at all investigated concentrations (rank among surfactants) [1] | temperature of prolonged heating that causes decomposition [3] [°C] |
| --- | --- | --- | --- | --- | --- | --- | --- | --- |
| CCCCCCCCCCCC(=O)NCCC[N+](C)(C)C/C=C/C[N+](C)(C)CCCNC(=O)CCCCCCCCCCC.[Br-].[Br-] [Surfactant 1] | 0.91 | 1.81 | 35.77 | 36.23 | 0.000256 | no structural changes occurred | – | – |
| CCCCCCCCCCCC(=O)NCCC[N+](C)(C)C/C=C\C[N+](C)(C)CCCNC(=O)CCCCCCCCCCC.[Cl-].[Cl-] [Surfactant 2] | 1.05 | 1.60 | 33.88 | 38.12 | – | – | highest surface tension | – |
| CCCCCCCC/C=C\CCCCCCCC(=O)NCCC[N+](C)(C)C/C=C/C[N+](C)(C)CCCNC(=O)CCCCCCC/C=C\CCCCCCCC.[Br-].[Br-] [Surfactant 3] | 0.86 | 1.92 | 36.33 | 35.67 | 0.000158 | – | – | – |
| CCCCCCCC/C=C\CCCCCCCC(=O)NCCC[N+](C)(C)C/C=C\C[N+](C)(C)CCCNC(=O)CCCCCCC/C=C\CCCCCCCC.[Cl-].[Cl-] [Surfactant 4] | 1.01 | 1.64 | 34.77 | 37.23 | 0.000291 | – | – | – |
| CCCCCCCC/C=C\CCCCCCCC(=O)NCCC[N+](C)(C)CCCC[N+](C)(C)CCCNC(=O)CCCCCCC/C=C\CCCCCCCC.[Br-].[Br-] [Surfactant 5] | 0.73 | 2.26 | 39.08 | 32.92 | 0.000105 | – | – | – |
| CCCCCCCC/C=C\CCCCCCCC(=O)NCCC[N+](C)(C)CCCCCC[N+](C)(C)CCCNC(=O)CCCCCCC/C=C\CCCCCCCC.[Br-].[Br-] [Surfactant 6] | 0.70 | 2.38 | 41.66 | 30.34 | 7.7e-05 | no structural changes occurred | least surface tension | – |
| CCCCCCCCCCCCOS(=O)(=O)[O-].[Na+] [sodium dodecyl sulfate (SDS), sodium dodecyl sulfate] | – | – | – | – | – | – | – | ≥ 40 |
